Laboratory results published in patent US10131663B2, “Chemical compounds” (AstraZeneca AB, priority 2016, dated 2018).
pIC50: −log10 of the molar value.

Legend:
[1] = Human Caco-2 bidirectional permeability A to B and B to A; format: in vitro ADME; settings: for Papp at 2 h: Caco-2, 2 hours, pH 7.4; for efflux ratio at 2 h: Caco-2, pH 7.4
[2] = Human hepatocyte assay (metabolic stability); format: in vitro ADME; settings: human hepatocytes
Protocol: The metabolic stability of compounds in human hepatocytes was assessed using the following protocol: • 1. Prepare 10 mM stock solutions of compound and control compounds in appropriate solvent (DMSO). Place incubation medium (L-15 Medium) in a 37° C. water bath, and allow warming for at least 15 minutes prior to use. • 2. Add 80 μL of acetonitrile to each well of the 96-well deep well plate (quenching plate). • 3. In a new 96-well plate, dilute the 10 mM test compounds and the control compounds to 100 μM by combining 198 μL of acetonitrile and 2 μL of 10 mM stock. • 4. Remove a vial of cryopreserved (less than −150° C.) human hepatocytes (LiverPool™ 10 Donor Human hepatocytes obtained from Celsis IVT. Chicago, Ill. (Product No. S01205)) from storage, ensuring that vials remain at cryogenic temperatures until thawing process ensues. As quickly as possible, thaw the cells by placing the vial in a 37° C. water bath and gently shaking the vials. Vials should remain in water bath until all ice crystals have dissolved and are no longer visible. After thawing is complete, spray vial with 70% ethanol, transfer the vial to a bio-safety cabinet. • 5. Open the vial and pour the contents into the 50 mL conical tube containing thawing medium. Place the 50 mL conical tube into a centrifuge and spin at 100 g for 10 minutes. […] Using Cellometer® Vision, count cells and determine the viable cell density. Cells with poor viability (<80% viability) are not acceptable for use. […] Transfer 247.5 μL of hepatocytes into each well of a 96-well cell culture plate. Place the plate on Eppendorf Thermomixer Comfort plate shaker to allow the hepatocytes to warm for 10 minutes. • 8. Add 2.5 μL of 100 μM test compound or control compounds into an incubation well containing cells, mix to achieve a homogenous suspension at 0.5 min, which when achieved, will define the 0.5 min time point. At the 0.5 min time, transfer 20 μL of incubated mixture to wells in a “Quenching plate” followed by vortexing. • 9. Incubate the plate at 37° C. at 900 rpm on an Eppendorf Thermomixer Comfort plate shaker. […] Centrifuge the quenching plates for 20 minutes at 4,000 rpm. 4 different compounds are pooled into one cassette and used for LC/MS/MS analysis.
All calculations were carried out using Microsoft Excel. Peak areas were determined from extracted ion chromatograms. In vitro intrinsic clearance (in vitro Clint, in […]) of parent compound was determined by regression analysis of the Ln percent parent disappearance vs. time curve.
V=incubation volume (0.25 mL);
N=number of hepatocytes per well (0.25×10^6 cells).

hERG potassium channel = hERG potassium channel (Homo sapiens (Human), UniProt Q12809); assay: hERG binding assay (automated patch clamp, CHO cells); format: cell-based; settings: CHO cell line, Nanion Syncropatch 384PE
Summary of the method: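 CHO cells on automated patch clamp; compounds tested in quadruplicate. Currents evoked every 15 s from −80 mV holding by a 500 ms step to 60 mV then 500 ms to −40 mV.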

[3] = Human Caco-2 passive permeability A to B Papp; format: in vitro ADME; settings: apical pH 6.5, basolateral pH 7.4, efflux inhibitor cocktail
Protocol: An automated assay was used to determine the passive permeability of compounds in Caco-2 cell monolayers carried out over 2 hours with an apical pH of 6.5 and basolateral pH of 7.4. The Caco-2 AB inhibition assay is carried out with chemical inhibition of the three major efflux transporters ABCB1 (P-gp), ABCG2 (BCRP) and ABCC2 (MRP2) in Caco-2 cells. Incubation of both apical and basolateral is carried out with a cocktail of inhibitors (50 μM quinidine, 20 μM sulfasalazine and 100 μM benzbromarone). Samples were analyzed through LC/MS/MS to estimate the apparent permeability coefficients (Papp) of compounds across Caco-2 cell monolayers and results are quoted in units of ×10^−6 cm/s.

[4] = log D (shake flask, 1-octanol/aqueous buffer); format: physicochemical
Summary of the method: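 Distribution between 1-octanol and aqueous buffer at pH 7.4 was measured by shake flask, with compounds run in mixtures of ten. Relative concentrations in each phase were quantified by UPLC with quantitative MS. Caffeine served as a low-log D QC sample in all runs.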

Chain of hERG potassium channel (Q12809 whole entry): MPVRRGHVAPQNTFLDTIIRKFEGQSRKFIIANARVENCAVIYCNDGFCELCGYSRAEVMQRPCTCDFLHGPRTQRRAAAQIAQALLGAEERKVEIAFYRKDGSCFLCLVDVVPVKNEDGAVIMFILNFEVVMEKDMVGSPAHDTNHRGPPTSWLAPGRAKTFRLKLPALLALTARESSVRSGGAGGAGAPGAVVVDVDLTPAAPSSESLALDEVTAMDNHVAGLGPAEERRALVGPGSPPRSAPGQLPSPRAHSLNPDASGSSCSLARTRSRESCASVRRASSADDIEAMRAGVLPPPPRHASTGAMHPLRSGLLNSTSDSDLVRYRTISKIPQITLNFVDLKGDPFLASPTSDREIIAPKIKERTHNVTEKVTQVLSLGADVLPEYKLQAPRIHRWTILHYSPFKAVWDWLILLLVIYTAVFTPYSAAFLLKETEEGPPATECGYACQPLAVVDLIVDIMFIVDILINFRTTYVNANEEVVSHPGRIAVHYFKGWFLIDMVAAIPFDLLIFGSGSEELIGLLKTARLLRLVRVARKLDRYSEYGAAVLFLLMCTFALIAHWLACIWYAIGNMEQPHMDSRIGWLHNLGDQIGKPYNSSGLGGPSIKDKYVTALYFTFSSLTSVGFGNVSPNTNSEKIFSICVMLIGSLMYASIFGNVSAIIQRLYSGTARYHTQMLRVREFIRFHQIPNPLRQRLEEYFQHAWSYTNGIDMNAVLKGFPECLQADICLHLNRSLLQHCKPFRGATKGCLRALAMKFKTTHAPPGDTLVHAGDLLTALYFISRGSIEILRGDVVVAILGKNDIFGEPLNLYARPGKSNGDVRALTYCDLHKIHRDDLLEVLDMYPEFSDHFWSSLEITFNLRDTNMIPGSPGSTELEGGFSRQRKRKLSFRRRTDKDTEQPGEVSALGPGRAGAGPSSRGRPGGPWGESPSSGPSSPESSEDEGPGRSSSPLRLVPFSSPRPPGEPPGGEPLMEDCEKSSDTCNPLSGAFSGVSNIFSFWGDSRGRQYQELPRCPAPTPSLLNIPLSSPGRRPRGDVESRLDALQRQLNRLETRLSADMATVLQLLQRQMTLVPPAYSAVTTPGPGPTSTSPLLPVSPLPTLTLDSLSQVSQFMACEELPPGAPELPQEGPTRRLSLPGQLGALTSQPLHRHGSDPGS

Compound	Papp at 2 h [1]	efflux ratio at 2 h [1]	hepatocyte CLint at 1 µM [2]	pIC50 (hERG potassium channel)	Papp at 2 h [3]	logD ([4]; 1-octanol/aqueous buffer, pH 7.4, pH 7.4, 1-octanol/aqueous buffer)	logD ([4]; pH 7.4, 1-octanol/aqueous buffer)
C[C@@H]1Cc2c(ccc3[nH]ncc23)[C@@H](c2ccc(NC3CN(CCCF)C3)cn2)N1CC(F)F [Example 25, 6-((6S,8R)-7-(2,2-difluoroethyl)-8-methyl-6,7,8,9-tetrahydro-3H-pyrazolo[4,3-f]isoquinolin-6-yl)-N-(1-(3-fluoropropyl)azetidin-3-yl)pyridin-3-amine]	5 ×10⁻⁶ cm/s	7.4	5 µL/min/1e6 cells	4.55	5.9 ×10⁻⁶ cm/s	2.5	–
COc1cc(NC2CN(CCCF)C2)ccc1[C@@H]1c2ccc3[nH]ncc3c2C[C@@H](C)N1CC(F)(F)F [Example 28, 1-(3-fluoropropyl)-N-(3-methoxy-4-((6S,8R)-8-methyl-7-(2,2,2-trifluoroethyl)-6,7,8,9-tetrahydro-3H-pyrazolo[4,3-f]isoquinolin-6-yl)phenyl)azetidin-3-amine]	1.2 ×10⁻⁶ cm/s	3.8	5 µL/min/1e6 cells	5.11	24 ×10⁻⁶ cm/s	–	3.6
